{"source": "patent US6280712A", "about": "“Sun screen agents” (Cognis Deutschland GmbH, priority 1997, dated 2001)", "type_in_all_cases": "physicochemical", "key": {"Zeidler spreading value": {"test": "Zeidler spreading value", "description": "in which R^1 and R^2 independently of one another represent linear or branched alkyl and/or alkenyl groups containing 1 to 22 carbon atoms, with the proviso that they contain in all at least 12, preferably 12 to 50 and more preferably 15 to 25 carbon atoms. The compounds are obtained by transesterifying dimethyl or diethyl carbonate, for example, with the corresponding fatty alcohols in known manner. Accordingly, the fatty carbonates may be symmetrical or non-symmetrical. However, carbonates in which R^1 and R^2 are the same and represent C6-16 alkyl groups are preferably used. Transesterification products of dimethyl or diethyl carbonate with octanol, 2-ethylhexyl alcohol, decanol, cetyl alcohol, cetearyl alcohol, stearyl alcohol, isostearyl alcohol, oleyl alcohol, behenyl alcohol and/or erucyl alcohol in the form of their mono- and diesters or technical mixtures and Guerbet alcohols containing 8 to 24 carbon atoms are particularly preferred. […] The dialkyl carbonates may be used in quantities of 1 to 30% by weight, preferably 5 to 20% by weight and more preferably 8 to 10% by weight, based on the composition."}, "[1]": {"test": "Dissolving power for UV filters (statement in words)", "conditions": "for dissolving properties for UV filters: general statement; for dissolving power for UV filters: in contrast to other high-spreading oils, for example dialkyl ethers or cyclomethicone"}, "[2]": {"test": "High-spreading property (statement in words)", "conditions": "general statement"}, "[3]": {"test": "Volatility of the oil (remark in Table 1)", "conditions": "remark at Zeidler spreading value"}}}
{"compound": "CCCCC(CC)COC(=O)OCC(CC)CCCC", "note": "(stereo not shown) [di-2-ethylhexyl carbonate]", "values": [{"measurement": "Zeidler spreading value", "setting": "Zeidler spreading value", "result": 1600, "unit": "mm^2/10 mins"}, {"measurement": "dissolving properties for UV filters", "setting": "[1]", "result": "excellent dissolving properties for UV filters"}, {"measurement": "dissolving power for UV filters", "setting": "[1]", "result": "distinctly higher dissolving power for UV filters"}, {"measurement": "spreading", "setting": "[2]", "result": "high-spreading"}]}
{"compound": "Cyclomethicone [reference compound]", "values": [{"measurement": "Zeidler spreading value", "setting": "Zeidler spreading value", "result": "> 1600", "unit": "mm^2/10 mins"}, {"measurement": "volatility", "setting": "[3]", "result": "volatile"}]}
{"compound": "CCCCCCCCOC(=O)OCCCCCCCC", "note": "[di-n-octyl carbonate]", "values": [{"measurement": "Zeidler spreading value", "setting": "Zeidler spreading value", "result": 1600, "unit": "mm^2/10 mins"}, {"measurement": "dissolving properties for UV filters", "setting": "[1]", "result": "excellent dissolving properties for UV filters"}, {"measurement": "dissolving power for UV filters", "setting": "[1]", "result": "distinctly higher dissolving power for UV filters"}, {"measurement": "spreading", "setting": "[2]", "result": "high-spreading"}]}
